Starred links: 1 amine or outer side, 2 acyl side, 3 side chain; linkers in the order of their positions; H or OH if unused. Non-standard residues stand in square brackets, D forms with d. Residues, ends and D or L forms follow the SMILES beside them. αMeNva(5-ylidene) = C[C@@](CCC=[*:3])(N[*:1])C(=O)[*:2]; S5 = C=CCCC[C@](C)(N)C(=O)O
Key:
HIV-1 integrase (IN) [1] = target: T1, HIV-1 integrase (IN) (Human immunodeficiency virus type 1 group M subtype B, UniProt P04585); assay: In vitro HIV-1 IN catalytic activity inhibition, 3′-processing; type: biochemical
MT-4 cells = assay: Cytotoxicity in MT-4 cells; type: cell-based; settings: 50% cell-death in same cells (MT-4)
HIV-1 integrase (IN) [2] = target: T1, HIV-1 integrase (IN); assay: In vitro HIV-1 IN catalytic activity inhibition, strand transfer; type: biochemical
HIV-1 = settings: 50% cytoprotective activity in HIV-1 infected MT-4 cells

| SMILES | IC50 (HIV-1 integrase (IN) [1]) [µM] | CC50 (MT-4 cells) [µM] | IC50 (HIV-1 integrase (IN) [2]) [µM] | EC50 (HIV-1) [µM] |
| --- | --- | --- | --- | --- |
| C=CCCC[C@](C)(NC(=O)[C@H](CC(C)C)NC(=O)[C@H](CCCCN)NC(=O)[C@H](CC(C)C)NC(=O)[C@](C)(CCCC=C)NC(=O)[C@H](Cc1ccccc1)NC(=O)[C@H](Cc1ccc(O)cc1)NC(=O)[C@H](C)NC(=O)[C@@H](N)[C@@H](C)O)C(=O)NCC(=O)N[C@@H](CCCNC(=N)N)C(=O)N[C@@H](Cc1c[nH]c2ccccc12)C(N)=O [NLH5] (H-TAYF[S5]LKL[S5]GRW-NH2; N-terminus assumed) | 9 ± 1 | 28 | 6 ± 1 | 28 |
| C=CCC[C@](C)(NC(=O)[C@H](CC(C)C)NC(=O)[C@H](CCCCN)NC(=O)[C@H](CC(C)C)NC(=O)[C@](C)(CCC=C)NC(=O)[C@H](Cc1ccccc1)NC(=O)[C@H](Cc1ccc(O)cc1)NC(=O)[C@H](C)NC(=O)[C@@H](N)[C@@H](C)O)C(=O)NCC(=O)N[C@@H](CCCNC(=N)N)C(=O)N[C@@H](Cc1c[nH]c2ccccc12)C(N)=O [NLH11] (H-TAYF[αMeNva(5-ylidene)]LKL[αMeNva(5-ylidene)]GRW-NH2; N-terminus assumed) | 74 ± 11 | 18 | 68 ± 5 | > 18 |
